In patent US20080009418A1, “Selective Inhibitors” (Alchemia LTD., priority 2004, published 2008):

Assays:
Mouse urotensin (mUR2) = target: T1, Mouse urotensin (mUR2) (Mus musculus, UniProt Q8VIH9); assay: Radioligand binding, mouse urotensin mUR2 membranes, FlashPlate, [125I]-Urotensin II; conditions: compound at 10 μM; for A11: inhibition of radioligand binding: [125I]-Urotensin II, FlashPlate
T1 construct: purchased Perkin Elmer Biosignal
T1 sequence (Q8VIH9 1-385): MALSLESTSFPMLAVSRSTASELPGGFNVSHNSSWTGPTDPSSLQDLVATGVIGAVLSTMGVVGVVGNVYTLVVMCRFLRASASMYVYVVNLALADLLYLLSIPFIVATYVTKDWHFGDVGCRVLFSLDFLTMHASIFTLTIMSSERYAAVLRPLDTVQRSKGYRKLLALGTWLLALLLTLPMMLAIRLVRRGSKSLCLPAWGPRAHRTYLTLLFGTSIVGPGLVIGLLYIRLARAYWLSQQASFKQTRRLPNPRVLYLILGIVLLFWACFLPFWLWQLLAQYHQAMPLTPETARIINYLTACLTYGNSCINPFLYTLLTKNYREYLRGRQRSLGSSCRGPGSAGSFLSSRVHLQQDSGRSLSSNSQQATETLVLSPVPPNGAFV
Procedure, shortened: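 Cloned mouse urotensin (mUR2) receptor membranes from Perkin Elmer Biosignal were immobilized in FlashPlate microplates using a proprietary coating. Each well got 19.5 μl buffer, then 0.5 μl of DMSO, reference ligand, or compound. Adding 5 μl of [125I]-Urotensin II, diluted to 5× final concentration in binding buffer, started binding. Plates were sealed with TopSeal-A and incubated 1 hour at room temperature in the dark. Wells were counted for 30 seconds each on a TopCount after a 60-second delay, and percentage inhibition was calculated.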

Human Melanocortin (MC3) = target: T2, Human Melanocortin (MC3) (Homo sapiens, UniProt P41968); assay: Radioligand binding, human melanocortin MC3 membranes, FlashPlate, [125I]-NDP-αMSH; conditions: compound at 10 μM; for A3: inhibition of radioligand binding: [125I]-NDP-αMSH, FlashPlate
T2 construct: purchased Perkin Elmer Biosignal
Procedure, shortened: (§1)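 Cloned human receptor membranes were coated onto FlashPlate wells and incubated with radioligand and compound (added from a 0.5 mM DMSO daughter plate) for 1 hour at room temperature in the dark. Scintillation counting gave percent inhibition, with DMSO defining total and reference ligand defining non-specific binding.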

Human δ-opioid (DOP) = target: T3, Human δ-opioid (DOP) (Homo sapiens, UniProt P41143); assay: Radioligand binding, human δ-opioid (DOP) membranes, FlashPlate, [3H]-Bremazocine; conditions: compound at 10 μM; for A1: inhibition of radioligand binding: [3H]-Bremazocine, FlashPlate
T3 construct: purchased Perkin Elmer Biosignal
Procedure, shortened: as §1

Human opioid (ORL1) = target: T4, Human opioid (ORL1) (Homo sapiens, UniProt P41146); assay: Radioligand binding, human opioid ORL1 membranes, FlashPlate, [125I]-Nociceptin; conditions: compound at 10 μM; for A10: inhibition of radioligand binding: [125I]-Nociceptin, FlashPlate
T4 construct: purchased Perkin Elmer Biosignal
Procedure, shortened: as §1

Human neurokinin (NK1) = target: T5, Human neurokinin (NK1) (Homo sapiens, UniProt P25103); assay: Radioligand binding, human neurokinin NK1 membranes, filtration, [125I]-Substance P; conditions: compound at 10 μM; for A8: inhibition of radioligand binding: [125I]-Substance P, filtration
T5 construct: purchased Perkin Elmer Biosignal
Procedure, shortened: (§2)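 Membranes from cloned human receptors were incubated with compound and radioligand for 1 hour at room temperature. Bound ligand was collected on 0.3% PEI-soaked filters, washed with cold 50 mM Tris-HCl pH 7.4, and counted by scintillation. Percent inhibition was computed against DMSO totals and reference-ligand nonspecific wells.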

[1] = target: T6, Human neuropeptide Y (NPY-Y1) (Homo sapiens, UniProt P25929); assay: Radioligand binding, human neuropeptide Y NPY-Y1 membranes, FlashPlate, [125I]-PYY; conditions: compound at 10 μM; for A9: inhibition of radioligand binding: [125I]-PYY, FlashPlate
T6 construct: purchased Perkin Elmer Biosignal
T6 sequence (P25929 1-384): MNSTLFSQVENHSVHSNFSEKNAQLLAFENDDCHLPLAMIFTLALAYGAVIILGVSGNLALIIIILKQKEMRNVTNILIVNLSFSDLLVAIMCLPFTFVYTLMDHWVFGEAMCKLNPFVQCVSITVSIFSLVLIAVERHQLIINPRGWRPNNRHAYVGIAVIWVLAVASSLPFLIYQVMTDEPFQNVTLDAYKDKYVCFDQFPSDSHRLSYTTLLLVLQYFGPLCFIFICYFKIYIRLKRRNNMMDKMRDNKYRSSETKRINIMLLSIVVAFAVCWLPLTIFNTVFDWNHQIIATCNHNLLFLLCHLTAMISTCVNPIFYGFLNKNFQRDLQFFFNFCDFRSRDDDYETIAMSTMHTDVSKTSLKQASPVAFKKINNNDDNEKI
Procedure, shortened: as §1

Human κ-Opioid (KOP) = target: T7, Human κ-Opioid (KOP) (Homo sapiens, UniProt P41145); assay: Radioligand binding, human κ-opioid (KOP) membranes, filtration, [3H]-Diprenorphine; conditions: compound at 10 μM; for A2: inhibition of radioligand binding: [3H]-Diprenorphine, filtration
T7 construct: purchased Perkin Elmer Biosignal
Procedure, shortened: as §2

Human Melanocortin (MC4) = target: T8, Human Melanocortin (MC4) (Homo sapiens, UniProt P32245); assay: Radioligand binding, human melanocortin MC4 membranes, FlashPlate, [125I]-NDP-αMSH; conditions: compound at 10 μM; for A4: inhibition of radioligand binding: [125I]-NDP-αMSH, FlashPlate
T8 construct: purchased Perkin Elmer Biosignal
Procedure, shortened: as §1

Human μ-opioid (MOP) = target: T9, Human μ-opioid (MOP) (Homo sapiens, UniProt P35372); assay: Radioligand binding, human μ-opioid (MOP) membranes, FlashPlate, [3H]-Naloxone; conditions: compound at 10 μM; for A7: inhibition of radioligand binding: [3H]-Naloxone, FlashPlate
T9 construct: purchased Perkin Elmer Biosignal
Procedure, shortened: as §1

Human melanocortin (MC5) = target: T10, Human melanocortin (MC5) (Homo sapiens, UniProt P33032); assay: Radioligand binding, human melanocortin MC5 membranes, FlashPlate, [125I]-NDP-αMSH; conditions: compound at 10 μM; for A5: inhibition of radioligand binding: [125I]-NDP-αMSH, FlashPlate
T10 construct: purchased Perkin Elmer Biosignal
Procedure, shortened: as §1

[2] = target: T11, Human melanin-concentrating hormone (MCH1) (Homo sapiens, UniProt Q99705); assay: Radioligand binding, human melanin-concentrating hormone MCH1 membranes, FlashPlate, [125I]-S36057; conditions: compound at 10 μM; for A6: inhibition of radioligand binding: [125I]-S36057, FlashPlate
T11 construct: purchased Perkin Elmer Biosignal
Procedure, shortened: as §1

T3 sequence (P41143 whole entry): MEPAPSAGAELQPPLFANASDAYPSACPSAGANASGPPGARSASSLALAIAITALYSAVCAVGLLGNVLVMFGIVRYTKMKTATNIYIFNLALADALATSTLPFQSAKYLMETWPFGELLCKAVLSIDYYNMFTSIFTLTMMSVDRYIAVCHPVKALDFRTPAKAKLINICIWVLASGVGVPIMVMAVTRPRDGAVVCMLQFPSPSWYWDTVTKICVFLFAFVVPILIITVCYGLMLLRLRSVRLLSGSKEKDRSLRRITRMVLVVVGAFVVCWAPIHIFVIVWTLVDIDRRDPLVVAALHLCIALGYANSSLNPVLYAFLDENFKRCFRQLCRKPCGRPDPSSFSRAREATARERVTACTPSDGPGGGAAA
T4 sequence (P41146 whole entry): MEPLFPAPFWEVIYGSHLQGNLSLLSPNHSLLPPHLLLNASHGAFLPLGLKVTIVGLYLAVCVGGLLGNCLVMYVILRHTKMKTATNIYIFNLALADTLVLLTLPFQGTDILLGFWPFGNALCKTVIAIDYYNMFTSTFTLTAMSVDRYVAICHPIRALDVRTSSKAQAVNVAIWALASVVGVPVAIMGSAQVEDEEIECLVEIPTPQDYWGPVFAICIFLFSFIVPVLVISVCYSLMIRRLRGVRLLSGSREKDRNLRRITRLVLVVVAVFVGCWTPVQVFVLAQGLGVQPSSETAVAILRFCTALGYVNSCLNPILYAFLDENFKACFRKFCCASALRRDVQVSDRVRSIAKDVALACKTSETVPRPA
T5 sequence (P25103 whole entry): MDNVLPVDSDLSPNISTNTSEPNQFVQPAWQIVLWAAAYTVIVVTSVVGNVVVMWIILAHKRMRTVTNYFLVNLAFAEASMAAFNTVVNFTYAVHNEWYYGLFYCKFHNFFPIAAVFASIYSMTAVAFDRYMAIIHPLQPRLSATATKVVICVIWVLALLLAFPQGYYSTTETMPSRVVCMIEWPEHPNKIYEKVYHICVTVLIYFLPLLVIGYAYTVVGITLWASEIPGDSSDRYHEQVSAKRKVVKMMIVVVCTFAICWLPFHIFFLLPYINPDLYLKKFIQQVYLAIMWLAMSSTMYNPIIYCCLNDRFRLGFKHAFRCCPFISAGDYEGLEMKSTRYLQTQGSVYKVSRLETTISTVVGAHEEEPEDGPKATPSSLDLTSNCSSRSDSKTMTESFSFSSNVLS
T2 sequence (P41968 whole entry): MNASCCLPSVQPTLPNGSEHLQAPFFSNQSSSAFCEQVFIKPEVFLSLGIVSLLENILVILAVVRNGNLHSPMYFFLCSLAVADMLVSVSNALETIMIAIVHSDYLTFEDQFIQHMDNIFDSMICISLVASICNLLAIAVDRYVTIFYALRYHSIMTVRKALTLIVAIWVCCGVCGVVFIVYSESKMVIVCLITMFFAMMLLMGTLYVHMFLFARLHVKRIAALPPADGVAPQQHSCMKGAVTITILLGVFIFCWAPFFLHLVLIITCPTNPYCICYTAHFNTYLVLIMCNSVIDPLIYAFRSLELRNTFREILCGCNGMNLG
T7 sequence (P41145 whole entry): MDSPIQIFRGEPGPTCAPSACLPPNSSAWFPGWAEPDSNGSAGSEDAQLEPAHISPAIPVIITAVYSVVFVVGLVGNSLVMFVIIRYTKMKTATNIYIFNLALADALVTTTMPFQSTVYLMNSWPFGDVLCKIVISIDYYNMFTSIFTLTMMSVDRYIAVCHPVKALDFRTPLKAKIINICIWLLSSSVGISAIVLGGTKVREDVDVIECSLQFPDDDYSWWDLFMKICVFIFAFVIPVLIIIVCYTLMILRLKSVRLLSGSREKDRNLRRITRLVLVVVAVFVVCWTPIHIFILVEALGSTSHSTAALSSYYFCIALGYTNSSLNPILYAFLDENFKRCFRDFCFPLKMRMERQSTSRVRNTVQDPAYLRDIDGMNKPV
T9 sequence (P35372 whole entry): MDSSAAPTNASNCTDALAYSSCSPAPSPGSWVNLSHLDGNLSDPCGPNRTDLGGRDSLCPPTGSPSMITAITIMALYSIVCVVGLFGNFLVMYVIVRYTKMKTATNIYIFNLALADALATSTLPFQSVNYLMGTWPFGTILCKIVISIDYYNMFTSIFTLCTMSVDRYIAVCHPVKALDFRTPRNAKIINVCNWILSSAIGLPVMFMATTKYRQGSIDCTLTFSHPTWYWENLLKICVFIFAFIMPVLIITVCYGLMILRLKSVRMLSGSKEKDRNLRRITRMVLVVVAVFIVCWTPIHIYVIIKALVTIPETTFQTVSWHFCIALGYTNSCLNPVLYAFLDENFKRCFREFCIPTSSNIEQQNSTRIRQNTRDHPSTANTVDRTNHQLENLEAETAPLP
T10 sequence (P33032 whole entry): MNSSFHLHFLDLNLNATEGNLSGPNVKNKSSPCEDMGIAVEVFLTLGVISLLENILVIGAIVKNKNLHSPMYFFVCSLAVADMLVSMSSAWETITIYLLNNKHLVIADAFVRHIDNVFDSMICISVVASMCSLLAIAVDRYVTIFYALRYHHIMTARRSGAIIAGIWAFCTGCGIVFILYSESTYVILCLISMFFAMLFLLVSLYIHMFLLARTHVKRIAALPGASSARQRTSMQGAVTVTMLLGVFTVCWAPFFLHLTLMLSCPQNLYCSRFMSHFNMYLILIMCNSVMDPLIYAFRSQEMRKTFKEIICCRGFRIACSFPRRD
T8 sequence (P32245 whole entry): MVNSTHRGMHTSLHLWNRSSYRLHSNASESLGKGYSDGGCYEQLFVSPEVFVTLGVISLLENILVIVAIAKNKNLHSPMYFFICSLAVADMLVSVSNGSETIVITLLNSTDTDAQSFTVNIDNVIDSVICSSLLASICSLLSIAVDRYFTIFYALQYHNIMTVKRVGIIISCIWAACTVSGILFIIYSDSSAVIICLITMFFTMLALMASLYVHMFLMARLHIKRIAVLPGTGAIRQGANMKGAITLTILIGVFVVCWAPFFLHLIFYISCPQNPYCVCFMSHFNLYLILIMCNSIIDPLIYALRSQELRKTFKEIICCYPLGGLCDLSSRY
T11 sequence (Q99705 whole entry): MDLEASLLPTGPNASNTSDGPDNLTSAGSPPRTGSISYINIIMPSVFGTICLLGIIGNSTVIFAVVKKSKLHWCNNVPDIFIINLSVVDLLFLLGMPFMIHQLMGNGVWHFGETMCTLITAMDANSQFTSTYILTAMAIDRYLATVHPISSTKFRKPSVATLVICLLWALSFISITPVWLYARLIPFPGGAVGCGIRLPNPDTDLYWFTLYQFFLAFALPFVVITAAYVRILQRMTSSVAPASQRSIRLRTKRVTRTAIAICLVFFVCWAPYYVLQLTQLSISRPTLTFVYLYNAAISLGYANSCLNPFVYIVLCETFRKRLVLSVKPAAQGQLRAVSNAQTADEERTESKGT

Row | Compound | A11: inhibition of radioligand binding (Mouse urotensin (mUR2)) | A3: inhibition of radioligand binding (Human Melanocortin (MC3)) | A1: inhibition of radioligand binding (Human δ-opioid (DOP)) | A10: inhibition of radioligand binding (Human opioid (ORL1)) | A8: inhibition of radioligand binding (Human neurokinin (NK1)) | A9: inhibition of radioligand binding [1] | A2: inhibition of radioligand binding (Human κ-Opioid (KOP)) | A4: inhibition of radioligand binding (Human Melanocortin (MC4)) | A7: inhibition of radioligand binding (Human μ-opioid (MOP)) | A5: inhibition of radioligand binding (Human melanocortin (MC5)) | A6: inhibition of radioligand binding [2] | other results
1 | CSC1O[C@H](COCc2ccc(Cl)cc2)[C@@H](O)[C@@H](OCc2ccc(Cl)cc2)[C@H]1NC(=O)CCCNC(=N)N (stereo partly drawn) [compound 274] | − (“−” indicates less than 50% inhibition at 10 μM) | − (“−” indicates less than 50% inhibition at 10 μM) | − (“−” indicates less than 50% inhibition at 10 μM) | − (“−” indicates less than 50% inhibition at 10 μM) | + (“+” indicates greater than 50% inhibition at 10 μM) | − (“−” indicates less than 50% inhibition at 10 μM) | − (“−” indicates less than 50% inhibition at 10 μM) | − (“−” indicates less than 50% inhibition at 10 μM) | − (“−” indicates less than 50% inhibition at 10 μM) | − (“−” indicates less than 50% inhibition at 10 μM) | − (“−” indicates less than 50% inhibition at 10 μM) | –
2 | COC[C@H]1OC(OCCc2ccccc2)[C@H](NC(=O)CCCNC(=N)N)[C@@H](OCc2ccc(Cl)cc2)[C@@H]1O (stereo partly drawn) [compound 50] | – | – | – | – | – | – | – | – | – | – | – | A11 radioligand binding inhibition (Mouse urotensin (mUR2); mouse urotensin mUR2 membranes): − (“−” indicates less than 50% inhibition at 10 μM); A3 radioligand binding inhibition (Human Melanocortin (MC3); human melanocortin MC3 membranes): − (“−” indicates less than 50% inhibition at 10 μM); A1 radioligand binding inhibition (Human δ-opioid (DOP); human δ-opioid (DOP) membranes): − (“−” indicates less than 50% inhibition at 10 μM); A10 radioligand binding inhibition (Human opioid (ORL1); human ORL1 membranes): − (“−” indicates less than 50% inhibition at 10 μM); A8 radioligand binding inhibition (Human neurokinin (NK1); human neurokinin NK1 membranes): + (“+” indicates greater than 50% inhibition at 10 μM); A9 radioligand binding inhibition ([1]; human NPY-Y1 membranes): − (“−” indicates less than 50% inhibition at 10 μM); A2 radioligand binding inhibition (Human κ-Opioid (KOP); human κ-opioid (KOP) membranes): − (“−” indicates less than 50% inhibition at 10 μM); A4 radioligand binding inhibition (Human Melanocortin (MC4); human melanocortin MC4 membranes): − (“−” indicates less than 50% inhibition at 10 μM); A7 radioligand binding inhibition (Human μ-opioid (MOP); human μ-opioid (MOP) membranes): − (“−” indicates less than 50% inhibition at 10 μM); A5 radioligand binding inhibition (Human melanocortin (MC5); human melanocortin MC5 membranes): − (“−” indicates less than 50% inhibition at 10 μM); A6 radioligand binding inhibition ([2]; human MCH1 membranes): + (“+” indicates greater than 50% inhibition at 10 μM)
3 | COCC1OC(OCc2ccc(Cl)cc2)C(NC(=O)CCN)C(OCc2ccccc2)C1O (stereo not drawn) [compound 195] | − (“−” indicates less than 50% inhibition at 10 μM) | − (“−” indicates less than 50% inhibition at 10 μM) | − (“−” indicates less than 50% inhibition at 10 μM) | − (“−” indicates less than 50% inhibition at 10 μM) | + (“+” indicates greater than 50% inhibition at 10 μM) | − (“−” indicates less than 50% inhibition at 10 μM) | − (“−” indicates less than 50% inhibition at 10 μM) | − (“−” indicates less than 50% inhibition at 10 μM) | − (“−” indicates less than 50% inhibition at 10 μM) | − (“−” indicates less than 50% inhibition at 10 μM) | − (“−” indicates less than 50% inhibition at 10 μM) | –
